Assay results reported in ChEMBL document CHEMBL1201862, “PubChem BioAssay data set” (2004).
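How tested: cells in 96-well plates exposed to compound for 48 hours at five concentrations. GI50: concentration for 50% inhibition of growth.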 Activity calls are given as the source filed them. Cut-off read from the data, not from the text of the source: active = GI50 up to about 1.1 µM and inactive = higher.

Key:
Assay in all cases: NCI-60 cell line screen, 48 h
RXF 393 = system: RXF 393
A549 = system: A549
SF-295 = system: SF-295
UACC-62 = system: UACC-62
OVCAR-5 = system: OVCAR-5
M14 = system: M14
SK-OV-3 = system: SK-OV-3
NCI-H226 = system: NCI-H226
MDA-MB-231 = system: MDA-MB-231
BT-549 = system: BT-549
LOX IMVI = system: LOX IMVI
SF-539 = system: SF-539
NCI/ADR-RES = system: NCI/ADR-RES
HOP-92 = system: HOP-92
SK-MEL-2 = system: SK-MEL-2
U-251 = system: U-251
COLO 205 = system: COLO 205
HCC 2998 = system: HCC 2998
SNB-75 = system: SNB-75
TK-10 = system: TK-10

Measured: GI50

Cc1occc1C(=S)Nc1ccc(Cl)c(C(=O)OC(C)C2CC2)c1 (stereo not given)
inactive: RXF 393 20.4 µM | A549 35.2 µM | SF-295 17.2 µM | UACC-62 22.8 µM | OVCAR-5 23.4 µM | M14 24.9 µM | SK-OV-3 21.6 µM | NCI-H226 15.5 µM | MDA-MB-231 17.4 µM | BT-549 22.5 µM | LOX IMVI 19.4 µM | SF-539 22.3 µM | NCI/ADR-RES 19.3 µM | HOP-92 23.5 µM | SK-MEL-2 18.3 µM | U-251 23.9 µM | COLO 205 20.1 µM | HCC 2998 20.3 µM | SNB-75 20.4 µM | TK-10 37.5 µM

NC(=O)C(=Cn1c(=S)[nH]c2ccc([N+](=O)[O-])cc21)C(N)=O
inactive: RXF 393 > 100 µM | A549 > 100 µM | SF-295 > 100 µM | UACC-62 > 100 µM | OVCAR-5 > 100 µM | M14 > 100 µM | SK-OV-3 > 100 µM | NCI-H226 28.8 µM | MDA-MB-231 > 100 µM | BT-549 > 100 µM | LOX IMVI > 100 µM | SF-539 > 100 µM | NCI/ADR-RES > 100 µM | HOP-92 > 100 µM | SK-MEL-2 > 100 µM | U-251 > 100 µM | COLO 205 > 100 µM | HCC 2998 > 100 µM | SNB-75 97.9 µM | TK-10 > 100 µM

COc1cccc(/C=C\c2ccnc3ccccc23)c1
inactive: RXF 393 > 10 µM | A549 > 10 µM | SF-295 > 10 µM | UACC-62 > 10 µM | OVCAR-5 > 10 µM | M14 > 10 µM | SK-OV-3 > 10 µM | NCI-H226 > 10 µM | MDA-MB-231 > 10 µM | BT-549 > 10 µM | LOX IMVI 9.51 µM | SF-539 > 10 µM | NCI/ADR-RES > 10 µM | HOP-92 > 10 µM | SK-MEL-2 > 10 µM | U-251 > 10 µM | COLO 205 > 10 µM | HCC 2998 > 10 µM | SNB-75 > 10 µM | TK-10 > 10 µM

CSc1nc(SC)c2c(C)c(Br)[nH]c2n1
inactive: RXF 393 > 100 µM | A549 > 100 µM | SF-295 > 100 µM | UACC-62 > 100 µM | OVCAR-5 > 100 µM | M14 > 100 µM | SK-OV-3 > 100 µM | NCI-H226 > 100 µM | MDA-MB-231 > 100 µM | BT-549 > 100 µM | LOX IMVI > 100 µM | SF-539 54.6 µM | NCI/ADR-RES > 100 µM | HOP-92 > 100 µM | SK-MEL-2 > 100 µM | U-251 > 100 µM | COLO 205 > 100 µM | HCC 2998 > 100 µM | SNB-75 > 100 µM | TK-10 > 100 µM

CN1CCN(CCCCN2c3ccccc3Sc3ccc(N=[N+]=[N-])cc32)CC1
inactive: RXF 393 5.16 µM | A549 12.9 µM | SF-295 12.2 µM | UACC-62 2.08 µM | OVCAR-5 9.55 µM | M14 2.05 µM | SK-OV-3 > 10 µM | NCI-H226 14.3 µM | MDA-MB-231 4.3 µM | BT-549 9.77 µM | LOX IMVI 2.47 µM | SF-539 7.35 µM | NCI/ADR-RES 11.7 µM | HOP-92 2.75 µM | SK-MEL-2 3.99 µM | U-251 4.95 µM | COLO 205 1.86 µM | HCC 2998 3.74 µM | SNB-75 4.55 µM | TK-10 12.7 µM
